Reference: US20100298141A1, “SUBSTITUTED PYRIDINE N-OXIDE HERBICIDES” (E. I. DU PONT DE NEMOURS AND COMPANY, priority 2007, published 2010)

What was measured:
wild oat = assay: Test C pre-/postemergence test; assay type: in vivo, Avena fatua
How it was run: (§1)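 Seeds were planted and treated preemergence with test chemical in a non-phytotoxic solvent mixture containing surfactant. Postemergence applications of the same formulation went onto plants 2 to 18 cm tall (1- to 4-leaf stage). A dash marks no test result.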

velvetleaf [1] = assay: Test A pre-/postemergence greenhouse test; assay type: in vivo, Abutilon theophrasti; conditions: for Plant response rating, Velvetleaf: 0 to 100 scale where 0 is no effect and 100 is complete control; for Velvetleaf plant response rating: 0 to 100 scale
How it was run: (§2)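 Pre: directed soil spray on seeded loam/sand. Post: foliar spray, plants 2–10 cm, 1–2 leaf stage, applied concurrently. Vehicle: non-phytotoxic solvent + surfactant. Greenhouse ~10 d; visual injury rating vs untreated controls.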

redroot pigweed = assay: Test A pre-/postemergence greenhouse test; assay type: in vivo, Amaranthus retroflexus; conditions: for Plant response rating, Pigweed: 0 to 100 scale where 0 is no effect and 100 is complete control; for Pigweed plant response rating: 0 to 100 scale
How it was run: as §2

wheat [2] = assay: Test A pre-/postemergence greenhouse test; assay type: in vivo, Triticum aestivum; conditions: for Plant response rating, Wheat: 0 to 100 scale where 0 is no effect and 100 is complete control; for Wheat plant response rating: 0 to 100 scale
How it was run: as §2

woolly cupgrass = assay: Test C pre-/postemergence test; assay type: in vivo, Eriochloa villosa
How it was run: as §1

corn = assay: Test C pre-/postemergence test; assay type: in vivo, Zea mays
How it was run: as §1

rice = assay: Test C flooded paddy test; assay type: in vivo, Oryza sativa; conditions: Flood
How it was run: (§3)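 Under a constant 3 cm flood, test compounds went directly into the paddy water. Following 13 to 15 days of greenhouse growth, treated species and controls were compared by eye.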

wheat [3] = assay: Test C pre-/postemergence test; assay type: in vivo, Triticum aestivum
How it was run: as §1

duck salad = assay: Test C flooded paddy test; assay type: in vivo, Heteranthera limosa; conditions: Flood
How it was run: as §3

giant foxtail = assay: Test C pre-/postemergence test; assay type: in vivo, Setaria faberii
How it was run: as §1

eastern black nightshade = assay: Test C pre-/postemergence test; assay type: in vivo, Solanum ptycanthum
Description: Seeds of plant species selected from blackgrass (Alopecurus myosuroides), downy brome (Bromus tectorum), green foxtail (Setaria viridis), Italian ryegrass (Lolium multiflorum), wheat (Triticum aestivum), wild oat (Avena fatua), catchweed bedstraw (Galium aparine), Russian thistle (Salsola kali), […] (Cynodon dactylon), Surinam grass (Brachiaria decumbens), cocklebur (Xanthium strumarium), corn (Zea mays), crabgrass (Digitaria sanguinalis), woolly cupgrass (Eriochloa villosa), giant foxtail (Setaria faberii), Goosegrass (Eleusin indica), johnsongrass (Sorghum halepense), kochia (Kochia scoparia), lambsquarters (Chenopodium album), morningglory (Ipomoea coccinea), eastern black nightshade (Solanum ptycanthum), yellow nutsedge (Cyperus esculentus), pigweed (Amaranthus retroflexus), common ragweed (Ambrosia elation), soybean (Glycine max), common (oilseed) sunflower (Helianthus annuus), and velvetleaf (Abutilon theophrasti) were planted and treated preemergence with test chemicals formulated in a non-phytotoxic solvent mixture which included a surfactant. At the same time, plants selected from these crop and weed species and also winter barley (Hordeum vulgare), canarygrass (Phalaris minor), and chickweed (Stellaria media) were treated with postemergence applications of some of the test chemicals formulated in the same manner. Plants ranged in height from 2 to 18 cm (1- to 4-leaf stage) for postemergence treatments. […] At time of treatment, test pots were flooded to 3 cm above the soil surface, treated by application of test compounds directly to the paddy water, and then maintained at that water depth for the duration of the test. […] A dash (-) response means no test result.

velvetleaf [4] = assay: Test C pre-/postemergence test; assay type: in vivo, Abutilon theophrasti
How it was run: as §1

yellow nutsedge = assay: Test C pre-/postemergence test; assay type: in vivo, Cyperus esculentus
How it was run: as §1

morningglory = assay: Test C pre-/postemergence test; assay type: in vivo, Ipomoea coccinea
How it was run: as §1

downy brome = assay: Test C pre-/postemergence test; assay type: in vivo, Bromus tectorum
How it was run: as §1

johnsongrass = assay: Test C pre-/postemergence test; assay type: in vivo, Sorghum halepense
How it was run: as §1

[5] = 62 g ai/ha, Preemergence, scale 0 to 100
[6] = 125 g ai/ha, preemergence, scale 0 (no effect) to 100 (complete control)
[7] = Postemergence, 125 g ai/ha, scale 0 to 100, 0 no effect, 100 complete control
[8] = Postemergence, 250 g ai/ha, scale 0 to 100, 0 no effect, 100 complete control
[9] = Preemergence, 31 g ai/ha, scale 0 to 100 (0 no effect, 100 complete control)
[10] = preemergence, 250 g ai/ha, scale 0 (no effect) to 100 (complete control)
[11] = Postemergence, 500 g ai/ha, 0 is no effect, 100 is complete control
[12] = Preemergence, 125 g ai/ha, 0 no effect, 100 complete control
[13] = 62 g ai/ha, scale 0 to 100 (0 no effect, 100 complete control)
[14] = 250 g ai/ha, scale 0 to 100, 0 no effect, 100 complete control, 13 to 15 days

CC(Oc1c(CS(=O)(=O)c2cccc[n+]2[O-])c(C(F)(F)F)nn1C)C(F)(F)F (stereo not shown) [Compound 82]
Oat, Wild plant response rating (wild oat; [5]): 60 | Oat, Wild plant response rating (wild oat; [6]): 80 | Plant response rating (0 to 100), Oat, Wild (wild oat; Postemergence, 31 g ai/ha): 0 | Plant response rating (0 to 100), Oat, Wild (wild oat; Postemergence, 62 g ai/ha): 0 | Plant response rating, Oat, Wild (wild oat; [7]): 0 | Plant response rating, Oat, Wild (wild oat; [8]): 40 | Plant response rating, Oat, Wild (wild oat; [9]): 35 | Oat, Wild plant response rating (wild oat; [10]): 80 | Plant response rating, Velvetleaf (velvetleaf [1]; Postemergence, 125 g ai/ha): 10 | Velvetleaf plant response rating (velvetleaf [1]; [11]): 80 | Velvetleaf plant response rating (velvetleaf [1]; [12]): 60 | Plant response rating, Velvetleaf (velvetleaf [1]; Preemergence, 500 g ai/ha): 100 | Plant response rating, Pigweed (redroot pigweed; Postemergence, 125 g ai/ha): 30 | Pigweed plant response rating (redroot pigweed; [11]): 70 | Pigweed plant response rating (redroot pigweed; [12]): 40 | Plant response rating, Pigweed (redroot pigweed; Preemergence, 500 g ai/ha): 100 | Plant response rating, Wheat (wheat [2]; Postemergence, 125 g ai/ha): 30 | Wheat plant response rating (wheat [2]; [11]): 60 | Wheat plant response rating (wheat [2]; [12]): 30 | Plant response rating, Wheat (wheat [2]; Preemergence, 500 g ai/ha): 70 | Cupgrass, Woolly plant response rating (woolly cupgrass; [5]): 90 | Cupgrass, Woolly plant response rating (woolly cupgrass; [6]): 90 | Plant response rating (0 to 100), Cupgrass, Woolly (woolly cupgrass; Postemergence, 31 g ai/ha): 0 | Plant response rating (0 to 100), Cupgrass, Woolly (woolly cupgrass; Postemergence, 62 g ai/ha): 0 | Plant response rating, Cupgrass, Woolly (woolly cupgrass; [7]): 20 | Plant response rating, Cupgrass, Woolly (woolly cupgrass; [8]): 50 | Plant response rating, Cupgrass, Woolly (woolly cupgrass; [9]): 80 | Cupgrass, Woolly plant response rating (woolly cupgrass; [10]): 98 | Corn plant response rating (corn; [5]): 40 | Corn plant response rating (corn; [6]): 70 | Plant response rating (0 to 100), Corn (corn; Postemergence, 31 g ai/ha): 0 | Plant response rating (0 to 100), Corn (corn; Postemergence, 62 g ai/ha): 0 | Plant response rating, Corn (corn; [7]): 0 | Plant response rating, Corn (corn; [8]): 0 | Plant response rating, Corn (corn; [9]): 40 | Corn plant response rating (corn; [10]): 80 | Plant response rating, Rice (rice; [13]): 0 | Plant response rating, Rice (rice; [14]): 60 | Wheat plant response rating (wheat [3]; [5]): 20 | Wheat plant response rating (wheat [3]; [6]): 30 | Plant response rating (0 to 100), Wheat (wheat [3]; Postemergence, 31 g ai/ha): 0 | Plant response rating (0 to 100), Wheat (wheat [3]; Postemergence, 62 g ai/ha): 20 | Plant response rating, Wheat (wheat [3]; [7]): 25 | Plant response rating, Wheat (wheat [3]; [8]): 35 | Plant response rating, Wheat (wheat [3]; [9]): 10 | Wheat plant response rating (wheat [3]; [10]): 60 | Plant response rating, Ducksalad (duck salad; [13]): 60 | Plant response rating, Ducksalad (duck salad; [14]): 80 | Foxtail, Giant plant response rating (giant foxtail; [5]): 85 | Foxtail, Giant plant response rating (giant foxtail; [6]): 100 | Plant response rating (0 to 100), Foxtail, Giant (giant foxtail; Postemergence, 31 g ai/ha): 0 | Plant response rating (0 to 100), Foxtail, Giant (giant foxtail; Postemergence, 62 g ai/ha): 0 | Plant response rating, Foxtail, Giant (giant foxtail; [7]): 40 | Plant response rating, Foxtail, Giant (giant foxtail; [8]): 40 | Plant response rating, Foxtail, Giant (giant foxtail; [9]): 70 | Foxtail, Giant plant response rating (giant foxtail; [10]): 100 | Nightshade plant response rating (eastern black nightshade; [5]): 40 | Nightshade plant response rating (eastern black nightshade; [6]): 80 | Plant response rating, Nightshade (eastern black nightshade; [9]): 0 | Nightshade plant response rating (eastern black nightshade; [10]): 100 | Velvetleaf plant response rating (velvetleaf [4]; [5]): 80 | Velvetleaf plant response rating (velvetleaf [4]; [6]): 80 | Plant response rating (0 to 100), Velvetleaf (velvetleaf [4]; Postemergence, 31 g ai/ha): 0 | Plant response rating (0 to 100), Velvetleaf (velvetleaf [4]; Postemergence, 62 g ai/ha): 0 | Plant response rating, Velvetleaf (velvetleaf [4]; [7]): 0 | Plant response rating, Velvetleaf (velvetleaf [4]; [8]): 20 | Plant response rating, Velvetleaf (velvetleaf [4]; [9]): 0 | Velvetleaf plant response rating (velvetleaf [4]; [10]): 100 | Nutsedge, Yellow plant response rating (yellow nutsedge; [5]): 60 | Nutsedge, Yellow plant response rating (yellow nutsedge; [6]): 75 | Plant response rating (0 to 100), Nutsedge, Yellow (yellow nutsedge; Postemergence, 31 g ai/ha): 0 | Plant response rating (0 to 100), Nutsedge, Yellow (yellow nutsedge; Postemergence, 62 g ai/ha): 0 | Plant response rating, Nutsedge, Yellow (yellow nutsedge; [7]): 0 | Plant response rating, Nutsedge, Yellow (yellow nutsedge; [8]): 0 | Plant response rating, Nutsedge, Yellow (yellow nutsedge; [9]): 40 | Nutsedge, Yellow plant response rating (yellow nutsedge; [10]): 100 | Morningglory plant response rating (morningglory; [5]): 70 | Morningglory plant response rating (morningglory; [6]): 98 | Plant response rating (0 to 100), Morningglory (morningglory; Postemergence, 31 g ai/ha): 0 | Plant response rating (0 to 100), Morningglory (morningglory; Postemergence, 62 g ai/ha): 0 | Plant response rating, Morningglory (morningglory; [7]): 0 | Plant response rating, Morningglory (morningglory; [8]): 0 | Plant response rating, Morningglory (morningglory; [9]): 0 | Morningglory plant response rating (morningglory; [10]): 100 | Bromegrass, Downy plant response rating (downy brome; [5]): 60 | Bromegrass, Downy plant response rating (downy brome; [6]): 80 | Plant response rating (0 to 100), Bromegrass, Downy (downy brome; Postemergence, 31 g ai/ha): 0 | Plant response rating (0 to 100), Bromegrass, Downy (downy brome; Postemergence, 62 g ai/ha): 0 | Plant response rating, Bromegrass, Downy (downy brome; [7]): 0 | Plant response rating, Bromegrass, Downy (downy brome; [8]): 0 | Plant response rating, Bromegrass, Downy (downy brome; [9]): 50 | Bromegrass, Downy plant response rating (downy brome; [10]): 100 | Johnsongrass plant response rating (johnsongrass; [5]): 80 | Johnsongrass plant response rating (johnsongrass; [6]): 80 | Plant response rating (0 to 100), Johnsongrass (johnsongrass; Postemergence, 31 g ai/ha): 0 | Plant response rating (0 to 100), Johnsongrass (johnsongrass; Postemergence, 62 g ai/ha): 0 | Plant response rating, Johnsongrass (johnsongrass; [7]): 10 | Plant response rating, Johnsongrass (johnsongrass; [8]): 40 | Plant response rating, Johnsongrass (johnsongrass; [9]): 40 | Johnsongrass plant response rating (johnsongrass; [10]): 100
